This is an account of results in PMC10885153, “Membrane Permeability in a Large Macrocyclic Peptide Driven by a Saddle-Shaped Conformation” (Journal of the American Chemical Society, 2024).

SMILES strings stand for the structures. Positions of bridges follow the written chain, without caps; N, C: chain ends. Non-standard residues stand in square brackets, D forms with d. Residues, ends and D or L forms follow the SMILES beside them. NMeC = CN[C@@H](CS)C(=O)O; NMeA = CN[C@@H](C)C(=O)O; dAbu = CC[C@@H](N)C(=O)O; dNMeA = CN[C@H](C)C(=O)O; Abu = CC[C@H](N)C(=O)O; Nleu = CC(C)CNCC(=O)O; NEtG = CCNCC(=O)O

This data set in a line: in vitro. The settings on record: PAMPA, pH 7.4, PAMPA Pe_avg.
What is called Papp is the rate of passage across a membrane or cell layer, normalised by area and donor concentration. Read a low Papp as slow passage. In turn, `CCOC(=O)[C@@H]1CSCC(=O)N[C@H](CC)C(=O)N(C)[C@@H](C)C(=O)N[C@H](CC(C)C)C(=O)N2CCC[C@H]2C(=O)N(CC)CC(=O)N[C@@H](CC(C)C)C(=O)N(C)[C@@H](C)C(=O)N[C@@H](CC(C)C)C(=O)N1C` [JF206_ALD_DDLL_Ethyl] ({CH2CO}-[dAbu][NMeA][dL]P[NEtG]L[NMeA]L[NMeC]-OEt; thioether N-9) showed an apparent permeability coefficient (Papp) at 10 µM of 0.00548 ×10⁻⁶ cm/s. As for `CCOC(=O)[C@@H]1CSCC(=O)N[C@H](CC)C(=O)N(C)[C@@H](C)C(=O)N[C@H](CC(C)C)C(=O)N2CCC[C@H]2C(=O)N(CC(C)C)CC(=O)N[C@@H](CC(C)C)C(=O)N(C)[C@@H](C)C(=O)N[C@@H](CC(C)C)C(=O)N1C` [JF206_ALD_DDLL_Isobutyl] ({CH2CO}-[dAbu][NMeA][dL]P[Nleu]L[NMeA]L[NMeC]-OEt; thioether N-9), the figure is 0.075 ×10⁻⁶ cm/s; as for `CCOC(=O)[C@@H]1CSCC(=O)N[C@H](CC)C(=O)N(C)[C@@H](C)C(=O)N[C@@H](CC(C)C)C(=O)N2CCC[C@H]2C(=O)N(CC(C)C)CC(=O)N[C@H](CC(C)C)C(=O)N(C)[C@H](C)C(=O)N[C@@H](CC(C)C)C(=O)N1C` [JF206_ALD_DLDD_Isobutyl] ({CH2CO}-[dAbu][NMeA]LP[Nleu][dL][dNMeA]L[NMeC]-OEt; thioether N-9), 0.038 ×10⁻⁶ cm/s.

In turn, `CCOC(=O)[C@@H]1CSCC(=O)N[C@H](CC)C(=O)N(C)[C@@H](C)C(=O)N[C@@H](CC(C)C)C(=O)N2CCC[C@H]2C(=O)N(CC)CC(=O)N[C@H](CC(C)C)C(=O)N(C)[C@@H](C)C(=O)N[C@@H](CC(C)C)C(=O)N1C` [JF206_ALD_DLDL_Ethyl] ({CH2CO}-[dAbu][NMeA]LP[NEtG][dL][NMeA]L[NMeC]-OEt; thioether N-9) showed a Papp at 10 µM of 0.027 ×10⁻⁶ cm/s. In turn, `CCOC(=O)[C@@H]1CSCC(=O)N[C@H](CC)C(=O)N(C)[C@@H](C)C(=O)N[C@@H](CC(C)C)C(=O)N2CCC[C@H]2C(=O)N(CC(C)C)CC(=O)N[C@H](CC(C)C)C(=O)N(C)[C@@H](C)C(=O)N[C@@H](CC(C)C)C(=O)N1C` [JF206_ALD_DLDL_Isobutyl] ({CH2CO}-[dAbu][NMeA]LP[Nleu][dL][NMeA]L[NMeC]-OEt; thioether N-9) showed an apparent permeability (Papp) at 10 µM of 0.248 ×10⁻⁶ cm/s. As for `CCOC(=O)[C@@H]1CSCC(=O)N[C@H](CC)C(=O)N(C)[C@@H](C)C(=O)N[C@@H](CC(C)C)C(=O)N2CCC[C@H]2C(=O)N(CC)CC(=O)N[C@@H](CC(C)C)C(=O)N(C)[C@H](C)C(=O)N[C@@H](CC(C)C)C(=O)N1C` [JF206_ALD_DLLD_Ethyl] ({CH2CO}-[dAbu][NMeA]LP[NEtG]L[dNMeA]L[NMeC]-OEt; thioether N-9), the figure is 0.016 ×10⁻⁶ cm/s; as for `CCOC(=O)[C@@H]1CSCC(=O)N[C@H](CC)C(=O)N(C)[C@@H](C)C(=O)N[C@@H](CC(C)C)C(=O)N2CCC[C@H]2C(=O)N(CC(C)C)CC(=O)N[C@@H](CC(C)C)C(=O)N(C)[C@H](C)C(=O)N[C@@H](CC(C)C)C(=O)N1C` [JF206_ALD_DLLD_Isobutyl] ({CH2CO}-[dAbu][NMeA]LP[Nleu]L[dNMeA]L[NMeC]-OEt; thioether N-9), 0.117 ×10⁻⁶ cm/s; as for `CCOC(=O)[C@@H]1CSCC(=O)N[C@H](CC)C(=O)N(C)[C@@H](C)C(=O)N[C@@H](CC(C)C)C(=O)N2CCC[C@H]2C(=O)N(CC(C)C)CC(=O)N[C@@H](CC(C)C)C(=O)N(C)[C@@H](C)C(=O)N[C@@H](CC(C)C)C(=O)N1C` [JF206_ALD_DLLL_Isobutyl] ({CH2CO}-[dAbu][NMeA]LP[Nleu]L[NMeA]L[NMeC]-OEt; thioether N-9), 0.598 ×10⁻⁶ cm/s. As for `CCOC(=O)[C@@H]1CSCC(=O)N[C@@H](CC)C(=O)N(C)[C@@H](C)C(=O)N[C@H](CC(C)C)C(=O)N2CCC[C@H]2C(=O)N(CC)CC(=O)N[C@H](CC(C)C)C(=O)N(C)[C@H](C)C(=O)N[C@@H](CC(C)C)C(=O)N1C` [JF206_ALL_LDDD_Ethyl] ({CH2CO}-[Abu][NMeA][dL]P[NEtG][dL][dNMeA]L[NMeC]-OEt; thioether N-9), the figure is 0.623 ×10⁻⁶ cm/s.
